Reference: patent US4111955A, “N-Trihalomethanesulfenyl carbamoyloximino di-sulfur heterocyclic compounds” (priority 1976, dated 1978)

Experiments:
Format in all cases: in vivo
[1] = test system: house flies (Musca domestica, L.); experiment: Fly Bait Test; set-up: key to pesticidal activity rating, Housefly: A: excellent control; B: partial control; C: no control; conditions: 500 parts per million, 24 hours
Experimental: Four to 6 day old adult house flies (Musca domestica, L.), reared according to the specifications of the Chemical Specialities Manufacturing Association (Blue Book, McNair-Dorland Co., N.Y. 1954; pages 243-244, 261) under controlled conditions of 80°±5° F. and 50±5 percent relative humidity, were the test insects. The flies were immobilized by anesthetizing with carbon dioxide and twenty five immobilized individuals, males and females, were transferred to a cage consisting of a standard food strainer about 5 inches in diameter which was inverted over a wrapping-paper-covered surface. The test compounds were formulated by diluting the stock suspension with a 10 percent (by weight) sugar solution to give a suspension containing 500 parts of test compound per million parts of final formulation, by weight. Ten milliliters of the test formulation were added to a souffle cup containing a 1-inch square of an absorbent cotton pad. This bait cup was introduced and centered on the blotting paper under the food strainer prior to admitting the anesthetized flies. The caged flies were allowed to feed on the bait for 24 hours, at a temperature of 80°±5° F. and the relative humidity of 50±5 percent.
(§1) In these tests the pesticidal activity of the compounds against aphid, mite, Southern Armyworm, Bean Beetle and House fly was rated as follows:
(§2) The LD50 values shown in the above Table II were determined by testing the compositions over an appropriate concentration range obtained by serial dilution of the stock suspension with water. The percent kill was plotted on log-probit graph paper versus parts per million concentration, and the LD50 read from an eye-fitted line drawn through the resultant points.

[2] = test system: two-spotted mite (Tetranychus urticae Koch); experiment: Mite Foliage Spray Test; set-up: key to pesticidal activity rating, Mite: A: excellent control; B: partial control; C: no control; conditions: 500 parts per million, 6 days
Experimental: Adults and nymphal stages of the two-spotted mite (Tetranychus urticae Koch), reared on Tendergreen bean plants at 80±5 percent relative humidity, were the test organisms. Infested leaves from a stock culture were placed on the primary leaves of two bean plants 6 to 8 inches in height, growing in a 21/2 inch clay pot. 150-200 Mites, a sufficient number for testing, transferred from the excised leaves to the fresh plants in a period of 24 hours. Following the 24 hour transfer period, the excised leaves were removed from the infested plants. The test compounds were formulated by diluting the stock suspension with water to give a suspension containing 500 parts of test compound per million parts of final formulation. The potted plants (one pot per compound) were placed on a revolving turntable and sprayed with 100-110 milliliters of test compound formulation by use of a DeVilbiss spray gun set at 40 psig. air pressure. This application, which lasted 25 seconds, was sufficient to wet the plants to run-off. As a control, 100-110 milliliters of a water solution containing acetone and emulsifier in the same concentrations as the test compound formulation, but containing no test compound, were also sprayed on infested plants. The sprayed plants were held at 80±5 percent relative humidity for 6 days, after which a mortality count of motile forms was made. Microscopic examination for motile forms was made on the leaves of the test plants. Any individual which was capable of locomotion upon prodding was considered living.
as §1, §2

[3] = test system: Mexican bean beetle (Epilachna varivestis, Muls.); experiment: Mexican Bean Beetle Leaf Spray Test; set-up: key to pesticidal activity rating, Bean beetle: A: excellent control; B: partial control; C: no control; conditions: leaf spray, 500 parts per million, 3 days
Experimental: Fourth instar larvae of the Mexican bean beetle (Epilachna varivestis, Muls.), reared on Tendergreen bean plants at a temperature of 80°±5° F. and 50±5 percent relative humidity, were the test insects.
The test compounds were formulated by diluting the stock suspension with water to give a suspension containing 500 parts of test compound per million parts of final formulation. Potted Tendergreen bean plants of standard height and age were placed on a revolving turntable and sprayed with 100-110 milliliters of test compound formulation by use of a DeVilbiss spray gun set at 10 psig air pressure. This application, which lasted 25 seconds, was sufficient to wet plants to run-off. As a control, 100-110 milliliters of a water-acetone-emulsifier solution containing no test compound were also sprayed on infested plants. When dry, the paired leaves were separated and each was placed in a 9 centimeter Petri dish lined with moistened filter paper. Five randomly selected larvae were introduced into each dish, and the dishes were closed. The closed dishes were labeled and held at a temperature of 80°±5° F. for 3 days. Although the larvae could easily consume the leaf within 24 to 48 hours, no more food was added. Larvae which were unable to move the length of the body, even upon stimulation, were considered dead.
as §1, §2

[4] = Peroral toxicity to mammals (rat); conditions: in vivo, po; rat, peroral, Table I; read-out: Rat P.O. LD50
Experimental: Certain of these compositions were also evaluated to determine their peroral toxicity to mammals. The animal selected for this experiment was the rat. The test results obtained are expressed in terms of the number of milligrams of composition per kilogram of weight of the animal required to achieve a mortality rate of 50 percent (LD50).

[5] = test system: bean aphid (Aphis fabae Scop.); experiment: Bean Aphid Foliage Spray Test; set-up: key to pesticidal activity rating, Aphid: A: excellent control; B: partial control; C: no control; conditions: 500 parts per million, 24 hour
Experimental: Adults and nymphal stages of the bean aphid (Aphis fabae Scop.) reared on potted dwarf nasturtium plants at 65°-70° F. and 50-70 percent relative humidity, constituted the test insects. For testing purposes, the number of aphids per pot was standardized to 100-150 by trimming plants containing excess aphids.
The test compounds were formulated by diluting the stock suspension with water to give a suspension containing 500 parts of test compound per million parts of final formulation.
The potted plants (one pot per compound tested) infested with 100-150 aphids, were placed on a revolving turntable and sprayed with 100-110 milliliters of test compound formulation by use of a DeVilbiss spray gun set at 40 psig. air pressure. This application, which lasted 25 seconds, was sufficient to wet the plants to run-off. As a control, 100-110 milliliters of a water-acetone-emulsifier solution containing no test compound were also sprayed on infested plants. After spraying, the pots were placed on their sides on a sheet of white standard mimeograph paper which had been previously ruled to facilitate counting. Temperature and humidity in the test room during the 24 hour holding period were 65°-70° F. and 50-70 percent, respectively. Aphids which fell onto the paper and were unable to remain standing after being uprighted were considered dead. Aphids remaining on the plants were observed closely for movement and those which were unable to move the length of the body upon stimulation by prodding were considered dead. Percent mortality was recorded for various concentration levels.
as §1, §2

[6] = test system: southern armyworm (Prodenia eridania, (Cram.)); experiment: Southern Armyworm Leaf Spray Test; set-up: key to pesticidal activity rating, Armyworm: A: excellent control; B: partial control; C: no control; conditions: 500 parts per million, 3 days
Experimental: Larvae of the southern armyworm (Prodenia eridania, (Cram.)), reared on Tendergreen bean plants at a temperature of 80°±5° F. and a relative humidity of 50±5 percent, constituted the test insects.
The test compounds were formulated by diluting the stock suspension with water to give a suspension containing 500 parts of test compound per million parts of final formulation. Potted Tendergreen bean plants of standard height and age were placed on a revolving turntable and sprayed with 100-110 milliliters of test compound formulation by use of a DeVilbiss spray gun set at 10 psig air pressure. This application, which lasted 25 seconds, was sufficient to wet plants to run-off. As a control, 100-110 milliliters of a water-acetone-emulsifier solution containing no test compound were also sprayed on infested plants. When dry, the paired leaves were separated and each one was placed in a 9 centimeter Petri dish lined with moistened filter paper. Five randomly selected larvae were introduced into each dish and the dishes were closed. The closed dishes were labeled and held at 80°-85° F. for 3 days. Although the larvae could easily consume the whole leaf within 24 hours, no more food was added. Larvae which were unable to move the length of the body, even upon stimulation by prodding, were considered dead. Percent mortality was recorded for various concentration levels.
as §1, §2

SMILES | pesticidal activity rating, Housefly [1] | pesticidal activity rating, Mite [2] | pesticidal activity rating, Bean beetle [3] | LD50 [4] | pesticidal activity rating, Aphid [5] | pesticidal activity rating, Armyworm [6]
CN(SC(Cl)(Cl)Cl)C(=O)ON=C1C[S+]([O-])CCS1 (centres unmarked) [2-O-[(N-METHYL-N-TRICHLOROMETHANESULFENYL) CARBAMOYLOXIMINO]-1,4-DITHIANE-4-OXIDE] | A | A | A | 28.3 mg/kg | A | A
CNC(=O)ON=C1SCCSC1C (centres unmarked) [drawing 11 --NHCH3, reference compound] | A | A | A | – | A | A
CCCC1SCCSC1=NOC(=O)NC (centres unmarked) [drawing 9 --NHCH3, reference compound] | A | C | A | – | A | C
CN(SC(Cl)(Cl)Cl)C(=O)ON=C1SCCSC1(C)C | B | A | A | 7.07 mg/kg | A | A
CNC(=O)ON=C1CSC(C)(C)S1 [drawing 6 --NHCH3, reference compound] | A | A | A | – | A | B
CNC(=O)ON=C1SCCSC1(C)C [drawing 7 --NHCH3, reference compound] | A | A | A | 0.3 mg/kg | A | A
CC1SCCSC1=NOC(=O)N(C)SC(Cl)(Cl)Cl (centres unmarked) | A | A | A | – | A | A
CN(SC(Cl)(Cl)Cl)C(=O)ON=C1CSC(C)(C)S1 | A | A | A | – | A | C
CN(SC(F)(F)F)C(=O)ON=C1CSCCS1 [2-O-[(N-METHYL-N-TRIFLUOROMETHANESULFENYL)-CARBAMOYLOXIMINO]-1,4-DITHIANE] | A | A | A | – | A | A
CNC(=O)ON=C1C[S+]([O-])CCS1 (centres unmarked) [drawing 10 --NHCH3, reference compound] | A | A | A | 12.3 mg/kg | C | A
CN(SC(Cl)(Cl)Cl)C(=O)ON=C1CSCS1 [4-[(N-METHYL-N-TRICHLOROMETHANESULFENYL)-CARBAMOYLOXIMINO]-1,3-DITHIOLANE] | A | A | A | 75 mg/kg | A | A
CCCC1SCCSC1=NOC(=O)N(C)SC(Cl)(Cl)Cl (centres unmarked) | A | C | A | – | B | C
CNC(=O)ON=C1CSCS1 [drawing 5 --NHCH3, reference compound] | A | A | A | 13 mg/kg | A | A
